The text below walks through data of patent US6645973B1, “Spiro(2h-1-benzopyran-2,4-piperidine)derivatives as glycine transport inhibitors” (Akzo Nobel, priority 1999, dated 2003).

Each structure is given as a SMILES string. Where a name gives a salt, the structure may show the parent alone.

The target in the first data set is T1, human GlyT-1b transporter (Homo sapiens, UniProt P48067).
T1 construct: expressed in transfected cells; host or cells: CHO cells, stably transfected (pcDNA3, Geneticin selection)
T1 sequence (P48067 1-652 isoform P48067-3): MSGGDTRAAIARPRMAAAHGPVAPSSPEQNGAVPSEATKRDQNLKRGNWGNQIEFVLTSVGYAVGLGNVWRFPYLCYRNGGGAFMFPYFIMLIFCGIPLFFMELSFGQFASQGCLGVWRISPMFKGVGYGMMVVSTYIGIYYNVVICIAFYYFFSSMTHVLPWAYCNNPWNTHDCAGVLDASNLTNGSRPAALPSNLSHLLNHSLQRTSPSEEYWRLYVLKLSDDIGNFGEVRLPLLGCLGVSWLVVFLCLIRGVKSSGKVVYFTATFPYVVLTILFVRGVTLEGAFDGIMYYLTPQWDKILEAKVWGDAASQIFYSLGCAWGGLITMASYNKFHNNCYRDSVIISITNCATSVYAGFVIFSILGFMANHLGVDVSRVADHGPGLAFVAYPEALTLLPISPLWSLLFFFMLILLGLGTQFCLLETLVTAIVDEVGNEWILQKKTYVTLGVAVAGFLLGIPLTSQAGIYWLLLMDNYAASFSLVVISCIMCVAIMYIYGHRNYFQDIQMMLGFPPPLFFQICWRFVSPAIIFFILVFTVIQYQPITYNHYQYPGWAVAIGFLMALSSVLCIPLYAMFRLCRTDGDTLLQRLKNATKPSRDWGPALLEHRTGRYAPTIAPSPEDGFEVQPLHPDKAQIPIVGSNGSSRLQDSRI
As to the kind of experiment: Glycine uptake in CHO cells heterologously expressing the human GlyT-1b transporter ([3H]glycine uptake). Format: cell-based. To be noted: CHO cells stably expressing hGlyT-1b, 10 minutes, 37° C. How it is done: Method for Determination of Glycine Uptake in CHO Cells Heterologously Expressing the Human GlyT-1b Transporter
A: Cloning: cDNA was generated by PCR according to the method described by Kim, K.-M. et al. Mol. Pharmacol. 1994, 45, 608-617. Sequence was verified by dideoxy sequencing using the ALF DNA sequencer™ (Pharmacia) and cloned into the expression construct pcDNA3 (Invitrogen).
B: Transfection: Transfection of hGlyT-1b into CHO cells was performed using a standard calcium phosphate technique as described by Sambrook, J. et al. (1989) in Molecular Cloning: A Laboratory Manual, Cold Spring Harbor Laboratory, Cold Spring Harbor, N.Y.
C: Selection: Stably transfected cells were selected for 1 week in growth medium containing 1 mg.cm^−3 Geneticin. Individual clones were picked for further analysis and positives passaged routinely as described below.
D: Culture conditions: Cells stably expressing; the hGlyT-1b gene were cultured at 37° C. in a 5% C02 atmosphere in DMEM—NUT.MIX. F12 with Glutamax-1 (Gibco) containing Geneticin (0.5 mg.cm^−3, Gibco) and supplemented with 10% Fetalclone II (Hyclone). Maintenance culture was carried out in standard 80 cm^2 ventilated flasks (2×10^−6 m filter, Nunc) and cells were subcultured by trypsinisation (Sigma) when confluent.
E: Assay Procedure: Cells for uptake studies were plated in 96 well plates (17,000 cells per well) in the absence of Geneticin and cultured for 48 h before use. To measure glycine transport, cells were washed twice with Hanks' balanced salt solution (HBSS) pre-warmed to 37° C. and excess fluid removed before addition of test compounds dissolved in 0.200 cm^3 HBSS. Plates were incubated at 37° C. for 5 minutes before addition of [^3H]glycine (0.050′cm^3, 150×10^−6 M, 248 Bq.nmol^−1, NEN) and incubation continued for a further 10 minutes. Uptake was terminated by washing cells with ice-cold HBSS before removal of excess fluid and addition of 0.200 cm^3 scintillation cocktail to each well. Plates were sealed with adhesive film, shaken to ensure samples were homogenous before scintillation counting in a plate counter.
F: Analysis: Data were analysed using standard curve fitting procedures to produce a plC50 value for active compounds (where plC50 is the negative logarithm of the concentration of test compound causing 50% inhibition of uptake).
Take `Cl.O=C(O)CN1CCC2(C=C(c3ccc4c(c3)OCO4)c3ccccc3O2)CC1` [Example 14, 4-(1,3-Benzodioxolo)-1′-carboxymethylspiro[2H-1-benzopyran-2,4′-piperidine]hydrochloride]: the “Inhibition of glycine transport by hGlyT-1, pIC50” value is 6.1.
The same measure, in the same setting: the value for `Cc1ccc(C2=CC3(CCN(CC(=O)O)CC3)Oc3ccccc32)cc1.Cl` [Example 4, 1′-Carboxymethyl-4-(4-methylphenyl)spiro[2H-1-benzopyran-2,4′-piperidine]hydrochloride] was 6.3.
Still for that read-out and setting: to `Cl.O=C(O)CN1CCC2(C=C(c3ccc4c(c3)OC(F)(F)O4)c3ccccc3O2)CC1` [Example 33, 1′-Carboxymethyl-4-(2,2-difluoro-1,3-benzodioxolo)spiro[2H-1-benzopyran-2,4′-piperidine]hydrochloride] belongs 6.2.

The same data set, now with this note: CHO cells stably expressing hGlyT-1b, 10 minutes, 37° C., read-out: Inhibition of glycine transport by hGlyT-1, pIC50 (converted).
On to `Cc1ccc(C2=CC3(CCN(CC(=O)O)CC3)Oc3cc(Cl)ccc32)cc1F` [Example 35, 1′-Carboxymethyl-7-chloro-4-(3-fluoro-4-methylphenyl)spiro[2H-1-benzopyran-2,4′-piperidine]hydrochloride], for which the IC50 is 0.501 µM.
Consider `C#CCOc1c(F)cc(C2=CC3(CCN(CC(=O)O)CC3)Oc3ccccc32)cc1F` [Example 57, 1′-Carboxymethyl-4-(3,5-difluoro-4-propargyloxyphenyl)spiro[2H-1-benzopyran-2,4′-piperidine]hydrochloride], for which the IC50 is 0.251 µM.
As for `CCCOc1ccc(C2=CC3(CCN(CC(=O)O)CC3)Oc3ccccc32)cc1F` [Example 48, 1′-Carboxymethyl-4-(3-fluoro-4-n-propoxyphenyl)spiro[2H-1-benzopyran-2,4′-piperidine]hydrochloride], the IC50 was 0.501 µM.
For `CN(C)c1c(F)cc(C2=CC3(CCN(CC(=O)O)CC3)Oc3ccccc32)cc1F` [Example 38, 1′-Carboxymethyl-4-(3,5-difluoro-4-dimethylaminophenyl)spiro[2H-1-benzopyran-2,4′-piperidine]hydrochloride], the IC50 was 0.251 µM.
With `COc1ccc(C2=CC3(CCN(CC(=O)O)CC3)Oc3ccccc32)cc1F` [Example 11, 1′-Carboxymethyl-4-(3-fluoro-4-methoxyphenyl)spiro[2H-1-benzopyran-2,4′-piperidine]hydrochloride], the IC50 was 0.631 µM.
In the case of `Cc1ccc(C2=CC3(CCN(CC(=O)O)CC3)Oc3ccccc32)cc1F` [Example 28, 1′-Carboxymethyl-4-(3-fluoro-4-methylphenyl)spiro[2H-1-benzopyran-2,4′-piperidine]hydrochloride], the IC50 is 0.316 µM.
Regarding `O=C(O)CN1CCC2(C=C(c3ccc(Br)c(F)c3)c3ccccc3O2)CC1` [Example 39, 4-(4-Bromo-3-fluorophenyl)-1′-carboxymethylspiro[2H-1-benzopyran-2,4′-piperidine]hydrochloride], the IC50 was 0.794 µM.
On the same count and under the same terms, the value for `O=C(O)CN1CCC2(C=C(c3ccc4ccccc4c3)c3ccccc3O2)CC1` [Example 10, 1′-Carboxymethyl-4-(2-naphthyl)spiro[2H-1-benzopyran-2,4′-piperidine]hydrochloride] was 0.631 µM; that for `COc1c(F)cc(C2=CC3(CCN(CC(=O)O)CC3)Oc3ccccc32)cc1F` [Example 36, 1′-Carboxymethyl-4-(3,5-difluoro-4-methoxyphenyl)spiro[2H-1-benzopyran-2,4′-piperidine]hydrochloride] was 0.398 µM.
On the same count and under the same terms, to `C=CCOc1c(F)cc(C2=CC3(CCN(CC(=O)O)CC3)Oc3ccccc32)cc1F` [Example 55, 4-(4-Allyloxy-3,5-difluorophenyl)-1′-carboxymethylspiro[2H-1-benzopyran-2,4′-piperidine]hydrochloride] belongs 0.251 µM.
Consider `O=C(O)CN1CCC2(C=C(c3ccc(Cl)cc3)c3ccccc3O2)CC1` [Example 2, 1′-Carboxymethyl-4-(4-chlorophenyl)spiro[2H-1-benzopyran-2,4′-piperidine]hydrochloride], for which the IC50 is 1 µM.
On to `CCCCOc1ccc(C2=CC3(CCN(CC(=O)O)CC3)Oc3ccccc32)cc1F` [Example 49, 1′-Carboxymethyl-4-(3-fluoro-4-n-butoxyphenyl)spiro[2H-1-benzopyran-2,4′-piperidine]hydrochloride], for which the IC50 was 0.794 µM.
On the same count and under the same terms, to `CN(C)c1ccc(C2=CC3(CCN(CC(=O)O)CC3)Oc3ccccc32)cc1F` [Example 37, 1′-Carboxymethyl-4-(4-dimethylamino-3-fluorophenyl)spiro[2H-1-benzopyran-2,4′-piperidine]hydrochloride] belongs 0.398 µM; to `O=C(O)CN1CCC2(C=C(c3cc(F)c(OCC(F)(F)F)c(F)c3)c3ccccc3O2)CC1` [Example 59, 1′-Carboxymethyl-4-(3,5-difluoro-4-trifluoroethoxyphenyl)spiro[2H-1-benzopyran-2,4′-piperidine]hydrochloride], 0.251 µM.
Turning to `O=C(O)CN1CCC2(C=C(c3ccc(Cl)c(F)c3)c3ccccc3O2)CC1` [Example 8, 1′-Carboxymethyl-4-(4-chloro-3-fluorophenyl)spiro[2H-1-benzopyran-2,4′-piperidine]hydrochloride], the IC50 is 0.501 µM.
Take `CN(C)c1ccc(C2=CC3(CCN(CC(=O)O)CC3)Oc3ccccc32)cc1` [Example 24, 1′-Carboxymethyl-4-[4-(N,N-dimethylamino)phenyl]spiro[2H-1-benzopyran-2,4′-piperidine]hydrochloride]: the IC50 was 0.631 µM.
The same measure, in the same setting: to `CC(C)(C)c1ccc(C2=CC3(CCN(CC(=O)O)CC3)Oc3ccccc32)cc1` [Example 12, 1′-Carboxymethyl-4-(4-tert-butylphenyl)spiro[2H-1-benzopyran-2,4′-piperidine]hydrochloride] belongs 0.398 µM.

Tested on in the next data set: not given
Test: not given
Details: not given
For the molecule `O=C([O-])CN1CCC2(C=C(c3ccccc3)c3ccccc3O2)CC1.[Li+]`, the melting point was 280 to 281 °C.
Still for that read-out and setting: the value for `COc1ccc(C2=CC3(CCN(CC(=O)O)CC3)Oc3ccccc32)cc1F` (as salt: hydrochloride) [Example 11, 1′-Carboxymethyl-4-(3-fluoro-4-methoxyphenyl)spiro[2H-1-benzopyran-2,4′-piperidine]hydrochloride] was 252 to 261 °C; that for `O=C([O-])CN1CCC2(CC1)CC(c1ccc(F)cc1)c1ccccc1O2.[Li+]` (centres unmarked) was 274 to 278 °C (dec.).
On the same count and under the same terms, the value for `CCOC(=O)CN1CCC2(C=C(c3ccc(CC)cc3)c3ccccc3O2)CC1` [Example 65, Ethyl 4-(4-ethylphenyl)spiro[2H-1-benzopyran-2,4′-piperidine]-1′-acetate] was 119 to 121 °C; that for `C=CCOc1c(F)cc(C2=CC3(CCN(CC(=O)O)CC3)Oc3ccccc32)cc1F` (as salt: hydrochloride) [Example 55, 4-(4-Allyloxy-3,5-difluorophenyl)-1′-carboxymethylspiro[2H-1-benzopyran-2,4′-piperidine]hydrochloride] was 221 to 225 °C.
The same measure, in the same setting: the value for `CN(C)c1c(F)cc(C2=CC3(CCN(CC(=O)O)CC3)Oc3ccccc32)cc1F` (as salt: hydrochloride) [Example 38, 1′-Carboxymethyl-4-(3,5-difluoro-4-dimethylaminophenyl)spiro[2H-1-benzopyran-2,4′-piperidine]hydrochloride] was 231 to 242 °C.

A word on the melting point: it is the temperature of the solid-liquid transition.
